# Patent EP0510271A1, “Novel R106 compounds” (TAKARA SHUZO CO. LTD., priority 1991, dated 1992)
# *1 amine or outer side, *2 acyl side, *3 side chain or, on linkers, in order; H or OH if unused. Where a SMILES comes first, the peptide text is derived from it. [ ]: non-standard residue; d: D form. ξ: configuration not given here. NMePhe(3-F) = CN[CH](Cc1cccc(F)c1)C(=O)O; NMePhe(2-F) = CN[CH](Cc1ccccc1F)C(=O)O; Phe(3-F) = N[CH](Cc1cccc(F)c1)C(=O)O; ξNMeVal(3-OH) = CNC(C(=O)O)C(C)(C)O; Phe(2-F) = N[CH](Cc1ccccc1F)C(=O)O; NMeY = CN[CH](Cc1ccc(O)cc1)C(=O)O; NMeF = CN[CH](Cc1ccccc1)C(=O)O; X1 = CCC(C)C(O[*:1])C(=O)[*:2]; Hyp = O=C(O)[CH]1C[CH](O)CN1; NMeV = CN[CH](C(=O)O)C(C)C; NMeS = CN[CH](CO)C(=O)O; Thz = O=C(O)[CH]1CSCN1
# Assay: solubility in water
# Details: compared with antibiotics R106
row,SMILES,solubility in water
1,CCC(C)C1NC(=O)C2CCCN2C(=O)C(Cc2ccccc2F)N(C)C(=O)C(Cc2ccccc2F)NC(=O)C(C(C)C)N(C)C(=O)C(C(C)CC)OC(=O)C(C(C)(C)O)N(C)C(=O)C(CC(C)C)NC(=O)C(C(C)C)N(C)C1=O (stereo not drawn) [Compound 1] (cyclo([ξNMeVal(3-OH)][X1][NMeV][Phe(2-F)][NMePhe(2-F)]PI[NMeV]L); configuration not given here),higher solubility in water than antibiotics R106
2,CCC(C)C1NC(=O)C2CCCN2C(=O)C(Cc2cccc(F)c2)N(C)C(=O)C(Cc2cccc(F)c2)NC(=O)C(C(C)C)N(C)C(=O)C(C(C)CC)OC(=O)C(C(C)(C)O)N(C)C(=O)C(CC(C)C)NC(=O)C(C(C)C)N(C)C1=O (stereo not drawn) [Compound 2] (cyclo([ξNMeVal(3-OH)][X1][NMeV][Phe(3-F)][NMePhe(3-F)]PI[NMeV]L); configuration not given here),higher solubility in water than antibiotics R106
3,CCC(C)C1NC(=O)C2CCCN2C(=O)C(Cc2ccc(O)cc2)N(C)C(=O)C(Cc2ccc(O)cc2)NC(=O)C(C(C)C)N(C)C(=O)C(C(C)CC)OC(=O)C(C(C)(C)O)N(C)C(=O)C(CC(C)C)NC(=O)C(C(C)C)N(C)C1=O (stereo not drawn) [Compound 3] (cyclo([ξNMeVal(3-OH)][X1][NMeV]Y[NMeY]PI[NMeV]L); configuration not given here),higher solubility in water than antibiotics R106
4,CCC(C)C1NC(=O)C2CC(O)CN2C(=O)C(Cc2ccccc2)N(C)C(=O)C(Cc2ccccc2)NC(=O)C(C(C)C)N(C)C(=O)C(C(C)CC)OC(=O)C(C(C)(C)O)N(C)C(=O)C(CC(C)C)NC(=O)C(C(C)C)N(C)C1=O (stereo not drawn) [Compound 4] (cyclo([ξNMeVal(3-OH)][X1][NMeV]F[NMeF][Hyp]I[NMeV]L); configuration not given here),higher solubility in water than antibiotics R106
5,CCC(C)C1NC(=O)C2CSCN2C(=O)C(Cc2ccccc2)N(C)C(=O)C(Cc2ccccc2)NC(=O)C(C(C)C)N(C)C(=O)C(C(C)CC)OC(=O)C(C(C)(C)O)N(C)C(=O)C(CC(C)C)NC(=O)C(C(C)C)N(C)C1=O (stereo not drawn) [Compound 5] (cyclo([ξNMeVal(3-OH)][X1][NMeV]F[NMeF][Thz]I[NMeV]L); configuration not given here),higher solubility in water than antibiotics R106
6,CCC(C)C1NC(=O)C2CCCN2C(=O)C(CO)N(C)C(=O)C(Cc2ccccc2)NC(=O)C(C(C)C)N(C)C(=O)C(C(C)CC)OC(=O)C(C(C)(C)O)N(C)C(=O)C(CC(C)C)NC(=O)C(C(C)C)N(C)C1=O (stereo not drawn) [Compound 9] (cyclo([ξNMeVal(3-OH)][X1][NMeV]F[NMeS]PI[NMeV]L); configuration not given here),higher solubility in water than antibiotics R106
